Read-outs that look alike come from different tables or passages of the source.
Columns and labels:
Escherichia coli = assay: Extended time kill study, Example 34 (0 to 24 h); format: cell-based
Experimental: Time kill studies. Strain suspensions were prepared as described above for the MIC test, and strain suspensions and compound solutions were mixed in the same volume. Samples were removed at specified times including 0 min, 30 sec, 1 min and 5 mins, were diluted in the test medium and streaked on agar. Colonies were counted after 24 to 48 hrs of incubation.
The time kill studies of Example 33 were extended for five compounds (Nex-59, Nex-60, Nex-61, Nex-62, and Nex-88) using the same methods at longer time periods and at higher multiples of MIC. Nex-88 is a code number for DDAIP.HCl from a different supplier.

[1] = system: Escherichia coli (ATCC 25922); assay: Minimum inhibitory concentration (MIC) assay, Example 33; format: cell-based; conditions: Escherichia coli
Outline: (§1)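 Following CLSI guidelines, each bacterial strain was taken from a twice-restreaked agar colony and suspended to 0.5 McFarland density. After a 1:100 dilution it was mixed 1:2 with 2-fold serially diluted compound in CAMHB. The MIC was read after incubation at 35 °C.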

[2] = system: Pseudomonas aeruginosa (ATCC 27853); assay: as above; format: cell-based; conditions: Pseudomonas aeruginosa
Outline: as §1

[3] = system: Staphylococcus aureus (ATCC 29213); assay: Time kill study, Example 33 (0 to 5 min); format: cell-based; conditions: 1×MIC
Outline: (§2)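 CLSI time-kill: suspension + compound solution, 1:1 by volume. Sampled 0 min, 30 sec, 1 min, 5 mins; diluted in test medium, streaked on agar. Colonies counted at 24 to 48 hrs; read-out Log10 CFU/mL.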

[4] = system: Escherichia coli (ATCC 25922); assay: Time kill study, Example 33 (0 to 5 min); format: cell-based; conditions: 1×MIC
Outline: as §2

[5] = system: Candida albicans (ATCC 90029); assay: Time kill study, Example 33 (0 to 5 min); format: cell-based; conditions: 1×MIC
Outline: as §2

[6] = system: Pseudomonas aeruginosa (ATCC 27853); assay: Time kill study, Example 33 (0 to 5 min); format: cell-based; conditions: 1×MIC
Outline: as §2

[7] = Solubility (Sol., Table 1); format: physicochemical
[8] = ATCC25922, Table 19 summary of Example 33 and Example 35, read-out: MIC
[9] = ATCC25922, n = 1, read-out: MIC E. coli
[10] = ATCC25922, n = 2, read-out: MIC E. coli
[11] = ATCC27853, Table 19 summary, read-out: MIC
[12] = ATCC27853, n = 1, read-out: MIC P. aeruginosa
[13] = ATCC27853, n = 2, read-out: MIC P. aeruginosa

## CCCCCCCCCCCCOC(=O)C(C)NCCO.Cl (stereo not shown) [Nex-61, Dodecyl 2-((2-hydroxyethyl)amino)propanoate hydrochloride]
Escherichia coli; 1 × MIC, 1 h
  Viable counts, Escherichia coli time kill study: 1.70 Log10 CFU/mL
Escherichia coli; 1 × MIC, 2 h
  Viable counts, Escherichia coli time kill study: 1.60 Log10 CFU/mL
Escherichia coli; 1 × MIC, 4 h
  Viable counts, Escherichia coli time kill study: 3.16 Log10 CFU/mL
Escherichia coli; 1 × MIC, 6 h
  Viable counts, Escherichia coli time kill study: 4.38 Log10 CFU/mL
Escherichia coli; 1 × MIC, 24 h
  Viable counts, Escherichia coli time kill study: 7.75 Log10 CFU/mL
Escherichia coli; 1×MIC, time 0
  Viable counts, Escherichia coli time kill study: 5.08 Log10 CFU/mL
Escherichia coli; 2 × MIC, 1 h
  Viable counts, Escherichia coli time kill study: <1 Log10 CFU/mL
Escherichia coli; 2 × MIC, 2 h
  Viable counts, Escherichia coli time kill study: <1 Log10 CFU/mL
Escherichia coli; 2 × MIC, 4 h
  Viable counts, Escherichia coli time kill study: <1 Log10 CFU/mL
Escherichia coli; 2 × MIC, 6 h
  Viable counts, Escherichia coli time kill study: <1 Log10 CFU/mL
Escherichia coli; 2 × MIC, 24 h
  Viable counts, Escherichia coli time kill study: <1 Log10 CFU/mL
Escherichia coli; 2 × MIC, time 0
  Viable counts, Escherichia coli time kill study: 5.03 Log10 CFU/mL
Escherichia coli; 4 × MIC, 1 h
  Viable counts, Escherichia coli time kill study: <1 Log10 CFU/mL
Escherichia coli; 4 × MIC, 2 h
  Viable counts, Escherichia coli time kill study: <1 Log10 CFU/mL
Escherichia coli; 4 × MIC, 4 h
  Viable counts, Escherichia coli time kill study: <1 Log10 CFU/mL
Escherichia coli; 4 × MIC, 6 h
  Viable counts, Escherichia coli time kill study: <1 Log10 CFU/mL
Escherichia coli; 4 × MIC, 24 h
  Viable counts, Escherichia coli time kill study: <1 Log10 CFU/mL
Escherichia coli; 4 × MIC, time 0
  Viable counts, Escherichia coli time kill study: 5.05 Log10 CFU/mL
[1]; [8]
  MIC: 780 µg/mL
[1]; [9]
  MIC: 780 µg/mL
[1]; [10]
  MIC: 1560 µg/mL
[2]; [11]
  MIC: 6250 µg/mL
[2]; [12]
  MIC: 6250 µg/mL
[2]; [13]
  MIC: 6250 µg/mL
[3]; 0.5 min
  Viable counts, Staphylococcus aureus time kill study: 6.15 Log10 CFU/mL
[3]; 1 min
  Viable counts, Staphylococcus aureus time kill study: 6.07 Log10 CFU/mL
[3]; 5 min
  Viable counts, Staphylococcus aureus time kill study: 5.54 Log10 CFU/mL
[3]; time 0
  Viable counts, Staphylococcus aureus time kill study: 6.38 Log10 CFU/mL
[4]; 0.5 min
  Viable counts, Escherichia coli time kill study: 5.54 Log10 CFU/mL
[4]; 1 min
  Viable counts, Escherichia coli time kill study: 5.61 Log10 CFU/mL
[4]; 5 min
  Viable counts, Escherichia coli time kill study: 4.9 Log10 CFU/mL
[4]; time 0
  Viable counts, Escherichia coli time kill study: 5.78 Log10 CFU/mL
[5]; 0.5 min
  Viable counts, Candida albicans time kill study: 5.19 Log10 CFU/mL
[5]; 1 min
  Viable counts, Candida albicans time kill study: 5.36 Log10 CFU/mL
[5]; 5 min
  Viable counts, Candida albicans time kill study: 5.3 Log10 CFU/mL
[5]; time 0
  Viable counts, Candida albicans time kill study: 5.23 Log10 CFU/mL
[6]; 0.5 min
  Viable counts, Pseudomonas aeruginosa time kill study: 4 Log10 CFU/mL
[6]; 1 min
  Viable counts, Pseudomonas aeruginosa time kill study: <3.70 Log10 CFU/mL
[6]; 5 min
  Viable counts, Pseudomonas aeruginosa time kill study: <3.52 Log10 CFU/mL
[6]; time 0
  Viable counts, Pseudomonas aeruginosa time kill study: 5.71 Log10 CFU/mL
[7]
  Sol.: 40%

## CCCCCCCCCCCCOC(=O)C(C)NCCN(CC)CC.Cl (stereo not shown) [Nex-62, Dodecyl 2-((2-(diethylamino)ethyl)amino)propanoate dihydrochloride]
Escherichia coli; 1 × MIC, 1 h
  Viable counts, Escherichia coli time kill study: 1 Log10 CFU/mL
Escherichia coli; 1 × MIC, 2 h
  Viable counts, Escherichia coli time kill study: 1 Log10 CFU/mL
Escherichia coli; 1 × MIC, 4 h
  Viable counts, Escherichia coli time kill study: <1 Log10 CFU/mL
Escherichia coli; 1 × MIC, 6 h
  Viable counts, Escherichia coli time kill study: 2.18 Log10 CFU/mL
Escherichia coli; 1 × MIC, 24 h
  Viable counts, Escherichia coli time kill study: 7.99 Log10 CFU/mL
Escherichia coli; 1×MIC, time 0
  Viable counts, Escherichia coli time kill study: 5.06 Log10 CFU/mL
Escherichia coli; 2 × MIC, 1 h
  Viable counts, Escherichia coli time kill study: <1 Log10 CFU/mL
Escherichia coli; 2 × MIC, 2 h
  Viable counts, Escherichia coli time kill study: <1 Log10 CFU/mL
Escherichia coli; 2 × MIC, 4 h
  Viable counts, Escherichia coli time kill study: <1 Log10 CFU/mL
Escherichia coli; 2 × MIC, 6 h
  Viable counts, Escherichia coli time kill study: <1 Log10 CFU/mL
Escherichia coli; 2 × MIC, 24 h
  Viable counts, Escherichia coli time kill study: <1 Log10 CFU/mL
Escherichia coli; 2 × MIC, time 0
  Viable counts, Escherichia coli time kill study: 5.18 Log10 CFU/mL
Escherichia coli; 4 × MIC, 1 h
  Viable counts, Escherichia coli time kill study: <1 Log10 CFU/mL
Escherichia coli; 4 × MIC, 2 h
  Viable counts, Escherichia coli time kill study: <1 Log10 CFU/mL
Escherichia coli; 4 × MIC, 4 h
  Viable counts, Escherichia coli time kill study: <1 Log10 CFU/mL
Escherichia coli; 4 × MIC, 6 h
  Viable counts, Escherichia coli time kill study: <1 Log10 CFU/mL
Escherichia coli; 4 × MIC, 24 h
  Viable counts, Escherichia coli time kill study: <1 Log10 CFU/mL
Escherichia coli; 4 × MIC, time 0
  Viable counts, Escherichia coli time kill study: 5.12 Log10 CFU/mL
[1]; [8]
  MIC: 100 µg/mL
[1]; [9]
  MIC: 100 µg/mL
[1]; [10]
  MIC: 100 µg/mL
[2]; [11]
  MIC: 6250 µg/mL
[2]; [12]
  MIC: 6250 µg/mL
[2]; [13]
  MIC: 6250 µg/mL
[3]; 0.5 min
  Viable counts, Staphylococcus aureus time kill study: 6.32 Log10 CFU/mL
[3]; 1 min
  Viable counts, Staphylococcus aureus time kill study: 6.35 Log10 CFU/mL
[3]; 5 min
  Viable counts, Staphylococcus aureus time kill study: 6.31 Log10 CFU/mL
[3]; time 0
  Viable counts, Staphylococcus aureus time kill study: 6.34 Log10 CFU/mL
[4]; 0.5 min
  Viable counts, Escherichia coli time kill study: 4.78 Log10 CFU/mL
[4]; 1 min
  Viable counts, Escherichia coli time kill study: 5.02 Log10 CFU/mL
[4]; 5 min
  Viable counts, Escherichia coli time kill study: 3.82 Log10 CFU/mL
[4]; time 0
  Viable counts, Escherichia coli time kill study: 4.82 Log10 CFU/mL
[5]; 0.5 min
  Viable counts, Candida albicans time kill study: 5.37 Log10 CFU/mL
[5]; 1 min
  Viable counts, Candida albicans time kill study: 5.18 Log10 CFU/mL
[5]; 5 min
  Viable counts, Candida albicans time kill study: 5.16 Log10 CFU/mL
[5]; time 0
  Viable counts, Candida albicans time kill study: 5.12 Log10 CFU/mL
[6]; 0.5 min
  Viable counts, Pseudomonas aeruginosa time kill study: 4 Log10 CFU/mL
[6]; 1 min
  Viable counts, Pseudomonas aeruginosa time kill study: <3.70 Log10 CFU/mL
[6]; 5 min
  Viable counts, Pseudomonas aeruginosa time kill study: <3.52 Log10 CFU/mL
[6]; time 0
  Viable counts, Pseudomonas aeruginosa time kill study: 5.52 Log10 CFU/mL
[7]
  Sol.: 48%

Reference: US20140357713A1, “ANTIMICROBIAL COMPOUNDS AND METHODS OF USE” (NexMed Holdings, Inc., priority 2012, published 2014)
